Legend:
[1] = literature, cited from earlier work
[2] = Thermal stability of dioxetanes: first order decay of chemiluminescence of dilute solutions in xylene at several temperatures; type: physicochemical; details: for Ea: activation energy for thermal decomposition; for Ea / log A: dilute solutions in xylene; for t1/2: thermal decomposition (Table 4; temperature not given); for t1/2 25° C. / log A: thermal decomposition
Procedure: (§1) Chemiluminescence intensities and rate measurements were performed using either a Turner Designs (Sunnyvale, Calif.) model TD-20e luminometer or a luminometer built in house (Black Box) which uses a photon counting photomultiplier. Temperature control of samples analyzed in the luminometers was achieved by means of a circulating bath connected to the instrument. Quantitative measurement of light intensities on the Turner luminometer was extended beyond the 10^4 linear range of the detector by a neutral density filter. Data collection was controlled by an Apple MacIntosh SE/30 computer using the LUMISOFT data reduction program (Lumigen, Inc., Southfield, Mich.).
Activation energies for thermal decomposition of dioxetanes 2c, h and i were determined by measuring the first order rate constant k for decay of chemiluminescence of dilute solutions in xylene at several temperatures.

[3] = Fluoride-triggered (TBAF) chemiluminescent decomposition of dioxetanes in DMSO; type: physicochemical; details: for rates of fluoride-triggered decomposition compared / t1/2 trig.: 10 μL of 10^-6 M dioxetane with 50 μL of 1M TBAF in DMSO; for Rate acceleration: fluoride-triggered versus thermal decomposition; for t1/2: [F-] 1M, DMSO
Procedure: as §1
Stock solutions of dioxetanes 2c, 2e, 2g and for comparison, 4-(3-t-butyldimethylsilyloxyphenyl)-4-methoxyspiro [1,2-dioxetane-3,2'-tricyclo[3.3.1.1^3,7 ]decane] (2j), (preparation described in U.S. Pat. No. 4,962,192) were made to a concentration of 10^-6 M in DMSO. Serial dilutions in DMSO were made as required. Ten μL aliquots were triggered in 7×50 mm polypropylene tubes in a Turner Designs TD-20e luminometer by injection of 50 μL of a solution of tetra-n-butylammonium fluoride (TBAF) in DMSO (1M-10^-4 M) in the appropriate solvent, typically DMSO. Light intensity was attenuated when needed by a neutral density filter. All experiments were conducted at ambient temperature. Peak light intensity and decay rate diminished as the fluoride concentration was decreased. At the lowest concentration of fluoride, decay kinetics were not cleanly first order.
The half lives for decay were essentially independent of dioxetane concentration.
The rates of fluoride-triggered decomposition of dioxetanes 2c, h, i and j were compared in DMSO under identical conditions, i.e. 10 μL aliquot of a 10^-6 M solution of dioxetane with 50 μL of 1M TBAF in DMSO. […]

[4] = Thermal and hydrolytic stability of dioxetane in aqueous buffer solution; type: physicochemical; details: 0.33 mM, 1 mg/mL Enhancer A, 0.2M buffer pH 9.6, 37° C. versus room temperature, 5 days
Procedure: The thermal and hydrolytic stability of a 0.33 mM solution of dioxetane 2f containing 1 mg/mL of Enhancer A in 0.2M 2-amino-2-methyl-1-propanol buffer, pH 9.6 and 0.88 mM Mg^+2 was determined at 37° C. Solutions of the dioxetane were maintained at room temperature and 37° C. for 5 days. To each of 12 wells in a 96-well microplate was added 100 μL of each solution. The plate was incubated at 37° C. and chemiluminescence emission initiated by addition of 10 μL of solutions containing 1.1×10^-15 mol of AP. Light intensities were integrated for 2.5 hours. Stability of the dioxetane was assessed by comparing the average light yield of the sample incubated at 37° C. to the solution held at room temperature. A decrease in the amount of light emitted indicates decomposition of the dioxetane during the incubation period.

SMILES	half life (t1/2) at 25° C. ([1]; 25° C.)	activation energy for decomposition [1] [kcal/mol]	Ea [2] [kcal/mol]	t1/2 [2] [yr]	t1/2 25° C. [2] [yr]	log A [2]	rates of fluoride-triggered decomposition compared [3]	t1/2 trig. [3] [s]	Rate acceleration [3]	thermal and hydrolytic stability in aqueous solution [4]	t1/2 ([3]; [Dioxetane 2h] 10^-6 M) [s]	t1/2 ([3]; [Dioxetane 2h] 10^-7 M) [s]	t1/2 ([3]; [Dioxetane 2h] 10^-8 M) [s]	t1/2 ([3]; [Dioxetane 2h] 10^-9 M) [s]
C1C2CC3CC1CC(C2)C31OOC12C1CC3CC(C1)CC2C3 (centres unmarked)	several years	37												
COC1(c2cccc(OC(C)=O)c2)OOC1(C(C)C)C(C)C (centres unmarked) [Dioxetane 2c]			28.1	1.2	1.2	12.85	essentially the same rate	7	5.5 × 10^6					
COC1(c2cccc(OP(=O)(O)O)c2)OOC1(C(C)C)C(C)C (centres unmarked) [Dioxetane 2f]										stable under these conditions				
COC1(c2cccc(O[Si](C)(C)C(C)(C)C)c2)OOC1(C1CCCCC1)C1CCCCC1 (centres unmarked) [Dioxetane 2h]			29.4	1.7	1.7	13.7	essentially the same rate	7	7.0 × 10^6		7.2	6.2	6.2	6.7
COC1(c2cccc(O)c2)OOC1(C1CCCCC1)C1CCCCC1 (centres unmarked) [Dioxetane 2i]			28.5	1.1	1.1	13.2	essentially the same rate	6	5.7 × 10^6					
COC1(c2cccc(O[Si](C)(C)C(C)(C)C)c2)OOC12C1CC3CC(C1)CC2C3 (centres unmarked) [Dioxetane 2j]				3.8			essentially the same rate	7	1.4 × 10^7					

— patent publication US5892064A, “Chemiluminescent dialkyl-substituted 1,2-dioxetanes, methods of synthesis and use” (Lumigen, Inc., priority 1997, dated 1999)
